Laboratory results published in patent publication US10806794B2, “Protease inhibitors having enhanced features” (priority 2008, dated 2020).
Values after ≈ are worked out from the molar mass of the structure shown. Values joined by “and” are separate entries in the source; they are usually repeats but may differ in a detail not shown here. Identical values can stand only once.

Assays:
HIV-1 virions = experiment: Infectivity of HIV-1 virions from treated cells on naive CEM-SS cells; assay type: cell-based
Experimental: In concert with p24 analysis, cell supernatants collected from cells exposed to test compounds at 8, 16, or 24 hours post-infection were used to infect naïve CEM-SS cells. Cell viability was measured six days post-infection as a measure of virus infectivity (Table 5).

CEM-SS cells = experiment: Post-exposure assay: toxicity in CEM-SS cells; conditions: human
Experimental: (§1) The effects of pre- and post-infection PI treatment on CEM-SS toxicity were assessed. […] Cell toxicity was monitored six days after infection using XTT reagent. In the post-exposure assay, test compounds were added to cells 0, 24, 48, or 72 h after HIV-1 infection, and cell viability was measured six days post-infection.

HIV-1RF [1] = experiment: Post-exposure assay: compounds added after HIV-1 infection of CEM-SS cells, cell viability; assay type: cell-based; conditions: Human immunodeficiency virus 1, CEM-SS, read-out: EC50
Experimental: as §1

HIV-1RF [2] = experiment: p24 levels after single high MOI HIV-1RF infection of CEM-SS cells, time of addition; assay type: cell-based
Experimental: The cytoprotective effect against HIV of the PEG-protease inhibitor conjugates was evaluated during a single round of high multiplicity of infection (“MOI”) HIV-1 infection in CEM-SS cells. CEM-SS cells were incubated for one hour with a single high MOI dose of HIV-1RF. Cells were washed to remove free virus, then test compounds were added to cells at 0, 2, 4, 6, 8, 16, or 24 hours after HIV-1 infection. To monitor viral replication, cell supernatants were analyzed at 30 hours post-infection for levels of the HIV capsid protein p24 (FIG. 1). […] Nevirapine inhibited viral replication at 1 μM when added to cells up to four hours post-infection, and at 10 μM when added up to eight hours post-infection.

HIV-1RF [3] = experiment: Pre-exposure assay: CEM-SS cells treated before HIV-1RF infection, cell viability; assay type: cell-based; conditions: for EC50: Human immunodeficiency virus 1, CEM-SS, read-out: EC50
Experimental: as §1

[4] = Metabolic stability in human liver microsomes; conditions: human liver microsomes, 3 μM
Experimental: The human liver microsome-mediated biotransformation of PEG-PI compounds was determined by monitoring the loss of the substrate as a function of time. […] Test compounds (3 μM final concentration) were preincubated with pooled (male and female) human liver microsomes (0.5 mg/mL final protein concentration) in buffer (0.1M phosphate buffer, pH 7.4) at 37° C. Reactions were initiated by the addition of NADPH (1 mM final concentration), and allowed to continue for 0, 5, 15, 30, and 45 minutes. […] Sample supernatants are analyzed by liquid chromatography-tandem mass spectrometry.

PBMCs = experiment: Toxicity in PBMCs cultured without virus (XTT); conditions: seven days, absence of virus, XTT
Experimental: (§2) Fresh human peripheral blood mononuclear cells (PBMCs) obtained from a commercial source were purified following centrifugation using a Ficoll-Hypaque density gradient. Viable cells were induced to proliferate in the presence of PHA-P and recombinant human IL-2 for 72 hours. […] Cell supernatant containing HIV-1 viral was incubated for 90 minutes at 37° C. with a reaction mixture containing EGTA, Triton X-100, Tris (pH 7.4), DTT, MgCl2, poly rA, oligo dT, and tritiated thymidine triphosphate (TTP). Incorporation of TTP into DNA was monitored by spotting the reaction mixture onto a DEAE filter mat, followed by washes with 5% phosphate buffer, distilled water, and 70% ethanol, and subsequent drying of the mat. […] TI was calculated as TC50/EC50.

Caco-2 cells = experiment: Bi-directional permeability in Caco-2 monolayers; conditions: Caco-2 monolayers
Experimental: Absorption properties of various compounds were measured using bi-directional permeability assays in Caco-2 cells. […] The efflux ratio is calculated as the ratio of the Papp(B→A)/Papp(A→B).

HIV-1RF [5] = experiment: Anti-HIV cytoprotection in CEM-SS cells infected with HIV-1RF (XTT); assay type: cell-based; conditions: six days, XTT; read-out: CEM-SS/HIV-1RF EC50 ± SD
Experimental: To evaluate whether conjugated protease inhibitors retain the ability to protect against HIV-1 infection, CEM-SS cells infected with the RF strain of HIV-1 were treated with test compounds for six days, and then cell viability was monitored using the tetrazolium dye XTT. […] A value for Therapeutic Index (TI) was calculated as TC50/EC50.

human plasma proteins = experiment: Plasma protein binding by equilibrium dialysis, human plasma; assay type: in vitro ADME; conditions: human plasma, 5 μM, fraction unbound
Experimental: In assays to estimate binding of test compounds to plasma proteins, test compound solutions (5 μM) are prepared in buffer and species-specific plasma (final DMSO concentration 0.5%). The plasma-containing solution is added to one side of the membrane of an equilibrium dialysis system, and the plasma-free is added to the other side. Dialysis was allowed to reach equilibrium by incubation for two hours at 37° C. The concentration of compound on both sides of the membrane was measured using LC-MS/MS.

HIV-1 HT/92/599 = experiment: HIV-1 reverse transcriptase activity after infection of fresh human PBMCs; assay type: cell-based; conditions: read-out: PBMC/HIV-1HT/92/599 EC50 ± SD; seven days, reverse transcriptase activity
Experimental: as §2, with “mat. Radioactivity was measured using a Wallac 1450 Microbeta Trilux liquid scintillation counter using Opti-Fluor O. Test compound-associated toxicity was measured in PBMCs cultured for seven days in the absence of virus using XTT reagent.” for “mat.”

[6] = tested on: human liver microsomal proteins; experiment: Microsomal protein binding by equilibrium dialysis; assay type: in vitro ADME; conditions: human liver microsomes, 3 μM, fraction unbound
Experimental: PEGylated protease inhibitors were evaluated for their propensity to be bound by proteins in normal human plasma or in human liver microsome preparations using equilibrium dialysis analysis. For microsomal protein binding, test compound (final concentration=3 μM) was diluted into either buffer alone or buffer containing human liver microsomes. The protein-free and microsome-containing solutions were then added to either side of an equilibrium dialysis system and allowed to reach equilibrium at 37° C. The concentration of compound on both sides of the membrane at equilibrium was quantified by LC-MS/MS, and the fraction of compound that remains unbound (Fu) is calculated.

[7] = drug addition 0 h post-infection
[8] = drug addition 24 h post-infection
[9] = drug addition 48 h post-infection
[10] = drug addition 72 h post-infection

## COc1cc(-c2ccc(/N=N/c3ccc4c(S(=O)(=O)O)cc(S(=O)(=O)O)c(N)c4c3O)c(OC)c2)ccc1/N=N/c1ccc2c(S(=O)(=O)O)cc(S(=O)(=O)O)c(N)c2c1O [Chicago Sky Blue]
HIV-1 virions; 0.5 μg/mL, added 8 h post-infection
  Percent Infectivity of HIV-1 Virions in comparison to virus-alone control: 100.0%
HIV-1 virions; 0.5 μg/mL, added 16 h post-infection
  Percent Infectivity of HIV-1 Virions in comparison to virus-alone control: 177.8%
HIV-1 virions; 0.5 μg/mL, added 24 h post-infection
  Percent Infectivity of HIV-1 Virions in comparison to virus-alone control: 266.4%
HIV-1 virions; 5 μg/mL, added 8 h post-infection
  Percent Infectivity of HIV-1 Virions in comparison to virus-alone control: 100.0%
HIV-1 virions; 5 μg/mL, added 16 h post-infection
  Percent Infectivity of HIV-1 Virions in comparison to virus-alone control: 331.2%
HIV-1 virions; 5 μg/mL, added 24 h post-infection
  Percent Infectivity of HIV-1 Virions in comparison to virus-alone control: 100.0%
HIV-1 virions; 50 μg/mL, added 8 h post-infection
  Percent Infectivity of HIV-1 Virions in comparison to virus-alone control: 100.0%
HIV-1 virions; 50 μg/mL, added 16 h post-infection
  Percent Infectivity of HIV-1 Virions in comparison to virus-alone control: 562.3%
HIV-1 virions; 50 μg/mL, added 24 h post-infection
  Percent Infectivity of HIV-1 Virions in comparison to virus-alone control: 100.0%
CEM-SS cells; 3 days
  TC50: 5.6 µg/mL (≈ 6.19 µM)
CEM-SS cells; 4 days
  TC50: 5.5 µg/mL (≈ 6.08 µM)
CEM-SS cells; 5 days
  TC50: 4.9 µg/mL (≈ 5.42 µM)
CEM-SS cells; 6 days
  TC50: 8.2 µg/mL (≈ 9.06 µM)
HIV-1RF [1]; [7]
  EC50: 1.84 µg/mL
HIV-1RF [1]; [8]
  EC50: > 10 µg/mL
HIV-1RF [1]; [9]
  EC50: > 10 µg/mL
HIV-1RF [1]; [10]
  EC50: > 10 µg/mL
HIV-1RF [2]; added at any time after infection, even at 50 μg/mL
  effect on p24 levels: did not affect p24 levels
HIV-1RF [3]; exposure 2 h pre-infection
  EC50: > 10 µg/mL
HIV-1RF [3]; exposure 8 h pre-infection
  EC50: > 10 µg/mL
HIV-1RF [3]; exposure 24 h pre-infection
  EC50: > 10 µg/mL
HIV-1RF [3]; concentrations up to 10 μg/mL
  antiviral activity after pre-treatment of cells: did not demonstrate antiviral activity

## CC(C)c1nc(CN(C)C(=O)N[C@H](C(=O)N[C@@H](Cc2ccccc2)C[C@H](O)[C@H](Cc2ccccc2)NC(=O)OCc2cncs2)C(C)C)cs1 [Ritonavir]
HIV-1 virions; 0.01 μM, added 8 h post-infection
  Percent Infectivity of HIV-1 Virions in comparison to virus-alone control: 42.9%
HIV-1 virions; 0.01 μM, added 16 h post-infection
  Percent Infectivity of HIV-1 Virions in comparison to virus-alone control: 331.2%
HIV-1 virions; 0.01 μM, added 24 h post-infection
  Percent Infectivity of HIV-1 Virions in comparison to virus-alone control: 100.0%
HIV-1 virions; 0.1 μM, added 8 h post-infection
  Percent Infectivity of HIV-1 Virions in comparison to virus-alone control: 1.0%
HIV-1 virions; 0.1 μM, added 16 h post-infection
  Percent Infectivity of HIV-1 Virions in comparison to virus-alone control: 3.7%
HIV-1 virions; 0.1 μM, added 24 h post-infection
  Percent Infectivity of HIV-1 Virions in comparison to virus-alone control: 26.6%
HIV-1 virions; 1 μM, added 8 h post-infection
  Percent Infectivity of HIV-1 Virions in comparison to virus-alone control: 0.1%
HIV-1 virions; 1 μM, added 16 h post-infection
  Percent Infectivity of HIV-1 Virions in comparison to virus-alone control: 0.1%
HIV-1 virions; 1 μM, added 24 h post-infection
  Percent Infectivity of HIV-1 Virions in comparison to virus-alone control: 0.1%
HIV-1RF [1]; [7]
  EC50: 40 nM
HIV-1RF [1]; [8]
  EC50: 30 nM
HIV-1RF [1]; [9]
  EC50: 70 nM
HIV-1RF [1]; [10]
  EC50: 260 nM
HIV-1RF [2]; 0.1 μM
  time of addition up to which antiviral activity (reduced p24) was seen: up to six
HIV-1RF [2]; 1 μM
  time of addition up to which antiviral activity (reduced p24) was seen: up to 24 hours post-infection
HIV-1RF [3]; exposure 2 h pre-infection
  EC50: 720 nM
HIV-1RF [3]; exposure 8 h pre-infection
  EC50: 750 nM
HIV-1RF [3]; exposure 24 h pre-infection
  EC50: 680 nM
HIV-1RF [3]; in words
  EC50 values after pre-treatment of cells: sub-micromolar

## COCCOCCOCCOCCOCCOCCOCCOc1ccc(C[C@H](NC(=O)O[C@H]2CO[C@H]3OCC[C@H]32)C(O)CN(CC(C)C)S(=O)(=O)c2ccc(N)cc2)cc1 (some centres unmarked) [mPEG7-O-Darunavir]
[4]
  CLint ± SEM: 113 ± 8.87 μL/min/mg protein
  t1/2: 12.2 min
PBMCs
  PBMC TC50 ± SD: >200000 nM
Caco-2 cells
  Efflux ratio (B→A/A→B): 33
Caco-2 cells; apical to basolateral
  A→B, ×10^−6: 0.19 cm/s
HIV-1RF [5]
  EC50: 47 nM and 76 nM
Human plasma proteins
  Plasma Protein Binding Fu ± SD: 0.314 ± 0.0116
HIV-1 HT/92/599
  EC50: 250 ± 27 nM
[6]
  Microsomal Protein Binding Fu ± SD: 0.84 ± 0.0131
